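Results reflect a 48-hour exposure of cells in 96-well plates to compound at five concentrations. GI50 is the concentration that inhibits growth by half. At the TGI there is no net growth.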
Columns and labels:
Test in all cases: DTP human tumour cell line panel, 48 h
786-0 renal = test system: 786-0 renal
A498 renal = test system: A498 renal
A549 NSCLC = test system: A549 NSCLC
ACHN renal = test system: ACHN renal
CAKI-1 renal = test system: CAKI-1 renal
CCRF-CEM leukemia = test system: CCRF-CEM leukemia
COLO 205 colon = test system: COLO 205 colon
DU-145 prostate = test system: DU-145 prostate
EKVX NSCLC = test system: EKVX NSCLC
HCC-2998 colon = test system: HCC-2998 colon
HCT-116 colon = test system: HCT-116 colon
HCT-15 colon = test system: HCT-15 colon
HL-60(TB) leukemia = test system: HL-60(TB) leukemia
HOP-62 NSCLC = test system: HOP-62 NSCLC
HOP-92 NSCLC = test system: HOP-92 NSCLC
HS 578T breast = test system: HS 578T breast
HT29 colon = test system: HT29 colon
K-562 leukemia = test system: K-562 leukemia
KM12 colon = test system: KM12 colon
LOX IMVI melanoma = test system: LOX IMVI melanoma
M14 melanoma = test system: M14 melanoma
MALME-3M melanoma = test system: MALME-3M melanoma
MCF7 breast = test system: MCF7 breast
MDA-MB-231 breast = test system: MDA-MB-231 breast
MDA-MB-435 = test system: MDA-MB-435
NCI-H226 lung = test system: NCI-H226 lung
NCI-H23 lung = test system: NCI-H23 lung
NCI-H460 lung = test system: NCI-H460 lung
NCI-H522 lung = test system: NCI-H522 lung
NCI/ADR-RES ovarian = test system: NCI/ADR-RES ovarian
OVCAR-3 ovarian = test system: OVCAR-3 ovarian
OVCAR-4 ovarian = test system: OVCAR-4 ovarian
OVCAR-5 ovarian = test system: OVCAR-5 ovarian
OVCAR-8 ovarian = test system: OVCAR-8 ovarian
PC-3 prostate = test system: PC-3 prostate
RPMI-8226 leukemia = test system: RPMI-8226 leukemia
RXF 393 renal = test system: RXF 393 renal
SF-268 CNS = test system: SF-268 CNS
SF-295 CNS = test system: SF-295 CNS
SF-539 CNS = test system: SF-539 CNS
SK-MEL-2 melanoma = test system: SK-MEL-2 melanoma
SK-MEL-28 melanoma = test system: SK-MEL-28 melanoma
SK-MEL-5 melanoma = test system: SK-MEL-5 melanoma
SK-OV-3 ovarian = test system: SK-OV-3 ovarian
SN12C renal = test system: SN12C renal
SNB-19 CNS = test system: SNB-19 CNS
SNB-75 CNS = test system: SNB-75 CNS
SW-620 colon = test system: SW-620 colon
T-47D breast = test system: T-47D breast
TK-10 renal = test system: TK-10 renal
U251 CNS = test system: U251 CNS
UACC-257 melanoma = test system: UACC-257 melanoma
UACC-62 melanoma = test system: UACC-62 melanoma
UO-31 renal = test system: UO-31 renal

O=c1c2[nH]c3ccccc3c2nc2n1CCS2
GI50 (786-0 renal): > 100 µM
TGI (786-0 renal): > 100 µM
GI50 (A498 renal): 56 µM
TGI (A498 renal): > 100 µM
GI50 (A549 NSCLC): > 100 µM
TGI (A549 NSCLC): > 100 µM
GI50 (ACHN renal): 65.2 µM
TGI (ACHN renal): > 100 µM
GI50 (CAKI-1 renal): 38.7 µM
TGI (CAKI-1 renal): > 100 µM
GI50 (CCRF-CEM leukemia): 0.598 µM
TGI (CCRF-CEM leukemia): > 100 µM
GI50 (COLO 205 colon): > 100 µM
TGI (COLO 205 colon): > 100 µM
GI50 (DU-145 prostate): > 100 µM
TGI (DU-145 prostate): > 100 µM
GI50 (EKVX NSCLC): 23.6 µM
TGI (EKVX NSCLC): > 100 µM
GI50 (HCC-2998 colon): > 100 µM
TGI (HCC-2998 colon): > 100 µM
GI50 (HCT-116 colon): > 100 µM
TGI (HCT-116 colon): > 100 µM
GI50 (HCT-15 colon): 68.5 µM
TGI (HCT-15 colon): > 100 µM
GI50 (HL-60(TB) leukemia): 17.5 µM
TGI (HL-60(TB) leukemia): > 100 µM
GI50 (HOP-62 NSCLC): > 100 µM
TGI (HOP-62 NSCLC): > 100 µM
GI50 (HOP-92 NSCLC): 4.25 µM
TGI (HOP-92 NSCLC): > 100 µM
GI50 (HS 578T breast): 26.9 µM
TGI (HS 578T breast): > 100 µM
GI50 (HT29 colon): > 100 µM
TGI (HT29 colon): > 100 µM
GI50 (K-562 leukemia): > 100 µM
TGI (K-562 leukemia): > 100 µM
GI50 (KM12 colon): 67 µM
TGI (KM12 colon): > 100 µM
GI50 (LOX IMVI melanoma): 54.7 µM
TGI (LOX IMVI melanoma): > 100 µM
GI50 (M14 melanoma): > 100 µM
TGI (M14 melanoma): > 100 µM
GI50 (MALME-3M melanoma): 69.9 µM
TGI (MALME-3M melanoma): > 100 µM
GI50 (MCF7 breast): > 100 µM
TGI (MCF7 breast): > 100 µM
GI50 (MDA-MB-231 breast): > 100 µM
TGI (MDA-MB-231 breast): > 100 µM
GI50 (MDA-MB-435): > 100 µM
TGI (MDA-MB-435): > 100 µM
GI50 (NCI-H226 lung): > 100 µM
TGI (NCI-H226 lung): > 100 µM
GI50 (NCI-H23 lung): > 100 µM
TGI (NCI-H23 lung): > 100 µM
GI50 (NCI-H460 lung): > 100 µM
TGI (NCI-H460 lung): > 100 µM
GI50 (NCI-H522 lung): > 100 µM
TGI (NCI-H522 lung): > 100 µM
GI50 (NCI/ADR-RES ovarian): > 100 µM
TGI (NCI/ADR-RES ovarian): > 100 µM
GI50 (OVCAR-3 ovarian): > 100 µM
TGI (OVCAR-3 ovarian): > 100 µM
GI50 (OVCAR-4 ovarian): > 100 µM
TGI (OVCAR-4 ovarian): > 100 µM
GI50 (OVCAR-5 ovarian): > 100 µM
TGI (OVCAR-5 ovarian): > 100 µM
GI50 (OVCAR-8 ovarian): > 100 µM
TGI (OVCAR-8 ovarian): > 100 µM
GI50 (PC-3 prostate): 47.8 µM
TGI (PC-3 prostate): > 100 µM
GI50 (RPMI-8226 leukemia): > 100 µM
TGI (RPMI-8226 leukemia): > 100 µM
GI50 (RXF 393 renal): > 100 µM
TGI (RXF 393 renal): > 100 µM
GI50 (SF-268 CNS): > 100 µM
TGI (SF-268 CNS): > 100 µM
GI50 (SF-295 CNS): > 100 µM
TGI (SF-295 CNS): > 100 µM
GI50 (SF-539 CNS): 85 µM
TGI (SF-539 CNS): > 100 µM
GI50 (SK-MEL-2 melanoma): > 100 µM
TGI (SK-MEL-2 melanoma): > 100 µM
GI50 (SK-MEL-28 melanoma): > 100 µM
TGI (SK-MEL-28 melanoma): > 100 µM
GI50 (SK-MEL-5 melanoma): > 100 µM
TGI (SK-MEL-5 melanoma): > 100 µM
GI50 (SK-OV-3 ovarian): > 100 µM
TGI (SK-OV-3 ovarian): > 100 µM
GI50 (SN12C renal): > 100 µM
TGI (SN12C renal): > 100 µM
GI50 (SNB-19 CNS): > 100 µM
TGI (SNB-19 CNS): > 100 µM
GI50 (SNB-75 CNS): 15.8 µM
TGI (SNB-75 CNS): 77.3 µM
GI50 (SW-620 colon): > 100 µM
TGI (SW-620 colon): > 100 µM
GI50 (T-47D breast): > 100 µM
TGI (T-47D breast): > 100 µM
GI50 (TK-10 renal): > 100 µM
TGI (TK-10 renal): > 100 µM
GI50 (U251 CNS): > 100 µM
TGI (U251 CNS): > 100 µM
GI50 (UACC-257 melanoma): > 100 µM
TGI (UACC-257 melanoma): > 100 µM
GI50 (UACC-62 melanoma): 92.7 µM
TGI (UACC-62 melanoma): > 100 µM
GI50 (UO-31 renal): 47.2 µM
TGI (UO-31 renal): > 100 µM

From PubChem BioAssay (NCI)
